According to US12466804B2 (BRISTOL-MYERS SQUIBB COMPANY, priority 2019, dated 2025):

Target: T1, human LPA1 (Homo sapiens, UniProt Q92633)
T1 construct: expressed in transfected cells; host or cells: Chinese hamster ovary (CHO) cells
Test: LPA1 functional antagonist assay (LPA-induced calcium flux)
Type: cell-based
Details: CHO cells overexpressing human LPA1; calcium flux induced by 10 nM LPA; read-out: hLPA1 IC50
Procedure: The effectiveness of compounds of the present invention as LPA1 inhibitors can be determined in an LPA1 functional antagonist assay as follows:
The cells were then equilibrated to room temperature for 30 minutes before the assay. […] IC50 values were determined by fitting data to a 4-parameter logistic equation (GraphPad Prism, San Diego CA).

T1 sequence (Q92633 whole entry): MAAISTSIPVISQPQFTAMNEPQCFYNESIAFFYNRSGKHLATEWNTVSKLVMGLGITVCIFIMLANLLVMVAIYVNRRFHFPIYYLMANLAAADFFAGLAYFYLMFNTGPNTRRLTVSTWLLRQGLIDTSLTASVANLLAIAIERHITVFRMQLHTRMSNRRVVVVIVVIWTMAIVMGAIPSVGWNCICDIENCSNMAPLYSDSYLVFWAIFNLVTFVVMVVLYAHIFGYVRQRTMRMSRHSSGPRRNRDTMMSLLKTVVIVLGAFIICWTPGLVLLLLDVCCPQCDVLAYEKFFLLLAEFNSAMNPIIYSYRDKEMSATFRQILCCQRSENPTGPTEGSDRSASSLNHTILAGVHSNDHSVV

IC50 [µM]	SMILES
0.027	Cc1nc(-c2nnn(C)c2COC(=O)N(C)CC2CCC2)ccc1OC[C@@H]1CC[C@H]1C(=O)O (racemic) [Example 6, (±)-(1R,2R)-2-(((6-(5-((((cyclobutylmethyl)(methyl)carbamoyl)oxy)methyl)-1-methyl-1H-1,2,3-triazol-4-yl)-2-methylpyridin-3-yl)oxy)methyl)cyclobutane-1-carboxylic acid]
0.042	CCc1cc(OCc2c(-c3ccc(OC[C@@H]4CC[C@H]4C(=O)O)c(C)n3)nnn2C)ncn1 (racemic) [Example 11, (±)-(1R,2R)-2-(((6-(5-(((6-ethylpyrimidin-4-yl)oxy)methyl)-1-methyl-1H-1,2,3-triazol-4-yl)-2-methylpyridin-3-yl)oxy)methyl)cyclobutane-1-carboxylic acid]
0.382	CCc1ccnc(OCc2c(-c3ccc(OC[C@@H]4CC[C@H]4C(=O)O)c(C)n3)nnn2C)n1 (racemic) [Example 14, (±)-(1R,2R)-2-(((6-(5-(((4-ethylpyrimidin-2-yl)oxy)methyl)-1-methyl-1H-1,2,3-triazol-4-yl)-2-methylpyridin-3-yl)oxy)methyl)cyclobutane-1-carboxylic acid]
0.128	Cc1nc(-c2nnn(C)c2COc2noc(C3CC3)n2)ccc1OC[C@@H]1CC[C@H]1C(=O)O (racemic) [Example 15, (±)-(1R,2R)-2-(((6-(5-(((5-cyclopropyl-1,2,4-oxadiazol-3-yl)oxy)methyl)-1-methyl-1H-1,2,3-triazol-4-yl)-2-methylpyridin-3-yl)oxy)methyl)cyclobutane-1-carboxylic acid]
0.066	Cc1nc(-c2nnn(C)c2COc2cc(OC3CC3)ncn2)ccc1OC[C@@H]1CC[C@H]1C(=O)O (racemic) [Example 17, (±)-(1R,2R)-2-(((6-(5-(((6-cyclopropoxy-pyrimidin-4-yl)oxy)methyl)-1-methyl-1H-1,2,3-triazol-4-yl)-2-methylpyridin-3-yl)oxy)methyl)cyclobutane-1-carboxylic acid]
0.083	Cc1nc(-c2nnn(C)c2COc2cc(C3CC3)ncn2)ccc1OC[C@@H]1CC[C@H]1C(=O)O (racemic) [Example 18, (±)-(1R,2R)-2-(((6-(5-(((6-cyclopropyl-pyrimidin-4-yl)oxy)methyl)-1-methyl-1H-1,2,3-triazol-4-yl)-2-methylpyridin-3-yl)oxy)methyl)cyclobutane-1-carboxylic acid]
0.184	Cc1nc(-c2nnn(C)c2COC(=O)N(C)CC2CC2)ccc1OC[C@@H]1CC[C@H]1C(=O)O (racemic) [Example 31, (±)-(1R,2R)-2-(((6-(5-((((Cyclopropylmethyl)(methyl)carbamoyl)oxy)methyl)-1-methyl-1H-1,2,3-triazol-4-yl)-2-methylpyridin-3-yl)oxy)methyl) cyclobutanecarboxylic acid]
0.326	Cc1nc(-c2nnn(C)c2CNC(=O)OCCC2CC2)ccc1OC[C@@H]1CC[C@H]1C(=O)O (racemic) [Example 33, (±)-(1R,2R)-2-(((6-(5-((((2-Cyclopropylethoxy)carbonyl)amino)methyl)-1-methyl-1H-1,2,3-triazol-4-yl)-2-methylpyridin-3-yl)oxy)methyl)cyclobutanecarboxylic acid]
0.086	Cc1nc(-c2nnn(C)c2Cn2nnc(CC3CC3)n2)ccc1OC[C@@H]1CC[C@H]1C(=O)O (racemic) [Example 36, (±)-(1R,2R)-2-(((6-(5-((5-(Cyclopropylmethyl)-2H-tetrazol-2-yl)methyl)-1-methyl-1H-1,2,3-triazol-4-yl)-2-methylpyridin-3-yl)oxy)methyl)cyclobutane-1-carboxylic acid]
0.267	Cc1nc(-c2nnn(C)c2Cn2nnnc2CC2CC2)ccc1OC[C@@H]1CC[C@H]1C(=O)O (racemic) [Example 37, (±)-(1R,2R)-2-(((6-(5-((5-(Cyclopropylmethyl)-1H-tetrazol-1-yl)methyl)-1-methyl-1H-1,2,3-triazol-4-yl)-2-methylpyridin-3-yl)oxy)methyl)cyclobutane-1-carboxylic acid]

More lines, now with the values behind:

SMILES	IC50 [µM]
Cc1noc(-c2ccc(OC[C@@H]3CC[C@H]3C(=O)O)cc2)c1COC(=O)N(C)C1CCCC1 (racemic) [Example 1, (±)-(1R,2R)-2-((4-(4-(((cyclopentyl(methyl)carbamoyl)oxy)methyl)-3-methylisoxazol-5-yl)phenoxy)methyl)cyclobutane-1-carboxylic acid]	0.187
Cc1noc(-c2ccc(OC[C@@H]3CC[C@H]3C(=O)O)cn2)c1CNc1nccc(-c2ccccn2)n1 (racemic) [Example 2, (±)-(1R,2R)-2-(((6-(3-methyl-4-(((4-(pyridin-2-yl)pyrimidin-2-yl)amino)methyl)isoxazol-5-yl)pyridin-3-yl)oxy)methyl)cyclobutane-1-carboxylic acid]	0.0154
Cc1nc(-c2onc(C)c2CNc2nccc(-c3ccccn3)n2)ccc1OC[C@@H]1CC[C@H]1C(=O)O (racemic) [Example 5, (±)-(1R,2R)-2-(((2-methyl-6-(3-methyl-4-(((4-(pyridin-2-yl)pyrimidin-2-yl)amino)methyl)isoxazol-5-yl)pyridin-3-yl)oxy)methyl)cyclobutane-1-carboxylic acid]	0.018
Cc1nc(-c2nnn(C)c2COc2noc(C(C)C)n2)ccc1OC[C@@H]1CC[C@H]1C(=O)O (racemic) [Example 16, (±)-(1R,2R)-2-(((6-(5-(((5-isopropyl-1,2,4-oxadiazol-3-yl)oxy)methyl)-1-methyl-1H-1,2,3-triazol-4-yl)-2-methylpyridin-3-yl)oxy)methyl)cyclobutane-1-carboxylic acid]	0.025
COc1cc(OCc2c(-c3ccc(OC[C@@H]4CC[C@H]4C(=O)O)c(C)n3)nnn2C)ncn1 (racemic) [Example 19, (±)-(1R,2R)-2-(((6-(5-(((6-methoxy-pyrimidin-4-yl)oxy)methyl)-1-methyl-1H-1,2,3-triazol-4-yl)-2-methylpyridin-3-yl)oxy)methyl)cyclobutane-1-carboxylic acid]	0.121
CCOc1ccnc(NCc2c(-c3ccc(OC[C@@H]4CC[C@H]4C(=O)O)c(C)n3)nnn2C)n1 (racemic) [Example 21, (±)-(1R,2R)-2-(((6-(5-(((4-ethoxy-pyrimidin-2-yl)amino)methyl)-1-methyl-1H-1,2,3-triazol-4-yl)-2-methylpyridin-3-yl)oxy)methyl)cyclobutane-1-carboxylic acid]	0.024
Cc1nc(-c2nnn(C)c2CNc2nccc(Oc3ccccc3)n2)ccc1OC[C@@H]1CC[C@H]1C(=O)O (racemic) [Example 22, (±)-(1R,2R)-2-(((2-methyl-6-(1-methyl-5-(((4-phenoxypyrimidin-2-yl)amino)methyl)-1H-1,2,3-triazol-4-yl)pyridin-3-yl)oxy)methyl)cyclobutane-1-carboxylic acid]	0.149
Cc1nc(-c2nnn(C)c2CNc2nccc(C(C)C)n2)ccc1OC[C@@H]1CC[C@H]1C(=O)O (racemic) [Example 23, (±)-(1R,2R)-2-(((6-(5-(((4-isopropyl-pyrimidin-2-yl)amino)methyl)-1-methyl-1H-1,2,3-triazol-4-yl)-2-methylpyridin-3-yl)oxy)methyl)cyclobutane-1-carboxylic acid]	0.117
Cc1nc(-c2nnn(C)c2CNc2nccc(-c3ccccn3)n2)ccc1OC[C@@H]1CC[C@H]1C(=O)O (racemic) [Example 26, (±)-(1R,2R)-2-(((2-methyl-6-(1-methyl-5-(((4-(pyridin-2-yl)pyrimidin-2-yl)amino)methyl)-1H-1,2,3-triazol-4-yl)pyridin-3-yl)oxy)methyl)cyclobutane-1-carboxylic acid]	0.056
Cn1nnc(-c2ccc(OC[C@@H]3CC[C@H]3C(=O)O)cn2)c1CNc1nccc(-c2ccccn2)n1 (racemic) [Example 27, (±)-(1R,2R)-2-(((6-(1-methyl-5-(((4-(pyridin-2-yl)pyrimidin-2-yl)amino)methyl)-1H-1,2,3-triazol-4-yl)pyridin-3-yl)oxy)methyl)cyclobutane-1-carboxylic acid]	0.049
Cc1nc(-c2nnn(C)c2CNC(=O)OCc2ccccc2)ccc1OC[C@@H]1CC[C@H]1C(=O)O (racemic) [Example 32, (±)-(1R,2R)-2-(((6-(5-((((Benzyloxy)carbonyl)amino)methyl)-1-methyl-1H-1,2,3-triazol-4-yl)-2-methylpyridin-3-yl)oxy)methyl)cyclobutanecarboxylic acid]	0.07
Cc1nc(-c2nnn(C)c2NC(=O)OCC(C)C)ccc1OC[C@@H]1CC[C@H]1C(=O)O (racemic) [Example 34, (±)-(1R,2R)-2-(((6-(5-((Isobutoxycarbonyl)amino)-1-methyl-1H-1,2,3-triazol-4-yl)-2-methylpyridin-3-yl)oxy)methyl)cyclobutane-1-carboxylic acid]	1.19
Cc1nc(-c2nnn(C)c2CNc2nccc(-c3ccccc3)n2)ccc1OC[C@@H]1CC[C@H]1C(=O)O (racemic) [Example 35, (±)-(1R,2R)-2-(((2-Methyl-6-(1-methyl-5-(((4-phenylpyrimidin-2-yl)amino)methyl)-1H-1,2,3-triazol-4-yl)pyridin-3-yl)oxy)methyl)cyclobutanecarboxylic acid]	0.049
Cc1nc(-c2nnn(C)c2CNc2ncc(-c3ccccn3)o2)ccc1OC[C@@H]1CC[C@H]1C(=O)O (racemic) [Example 40, (±)-(1R,2R)-2-(((2-methyl-6-(1-methyl-5-(((5-(pyridin-2-yl)oxazol-2-yl)amino)methyl)-1H-1,2,3-triazol-4-yl)pyridin-3-yl)oxy)methyl)cyclobutanecarboxylic acid]	0.52
Cc1nc(-c2nnn(C)c2CNC(=O)OCC(C)C)ccc1OC[C@@H]1CC[C@H]1C(=O)O (racemic) [Example 41, (±)-(1R,2R)-2-(((6-(5-(((isobutoxy-carbonyl)amino)methyl)-1-methyl-1H-1,2,3-triazol-4-yl)-2-methy-lpyridin-3-yl)oxy)methyl)cyclobutanecarboxylic acid]	3.75
